Publication PMC9551036, “A selective and orally bioavailable VHL-recruiting PROTAC achieves SMARCA2 degradation in vivo” (Nature Communications, 2022)
Several values for one entry are separate records, joined by “and”; a condition that tells them apart may be missing. Equal entries are not always repeated. Where two headings read alike, the source gives them in different places.

Molecular target: SMARCA2 (Homo sapiens, UniProt P51531)
Experiment: SMARCA2 capillary electrophoresis protein assay in other cell lines (A549, NCI-H1568, HCT116, LU99, HCC-364, HCT-15, HCC4006, SK-N-AS)
Type: cell-based
Parameters: endogenous in cells; host or cells: RKO, NCI-H1568, A549, HCT116, LU99, HCC-364, HCT-15, HCC4006, SK-N-AS
Settings: for LogEC50: log10 of concentration in mol/l
Description: 130,000–200,000 cells were seeded in 24-well plates and incubated until settled down or overnight. Compounds were dissolved in DMSO and added to cells in indicated concentrations using a digital dispenser following an optional media change. Cells were incubated for 4 or 18 h as indicated. For SMARCA2/4 half-life determination, 150,000 or 200,000 cells were seeded in 24-well plates. The next day, 50 µg/ml cycloheximide (Sigma) was added and cells were incubated for 1–24 h. For SMARCA2/4 re-synthesis measurements, 200,000 cells were seeded in 24-well plates. The next day, 100 nM compound 6 was added for 4 h to degrade SMARCA2/4, and a sample was taken as baseline for normalisation. To allow re-synthesis, a VHL binder (compound 32, 25 or 50 µM) was then added for 3 or 24 h. Medium was removed, cells were washed with PBS and lysed with 80 µl Lysis Buffer (MSD Tris Lysis Buffer (#R60TX-2) + Halt Inhibitor Cocktail (100x) + Benzonase 0.5 µL/ml). Samples were frozen at −80 °C and thawed at room temperature before use. Samples were transferred to a V-bottom plate and insoluble debris was pelleted by centrifugation for 5 min at maximum speed. The supernatant was transferred to a fresh plate. Master Mix and Ladder were prepared according to manufacturer’s instructions for 12–230 kDa Wes Separation Module, 8 × 25 capillary cartridges, Protein Simple #SM-W004 with Anti-Rabbit Detection Module for Wes, Peggy Sue or Sally Sue, Protein Simple #DM-001. 4.8 µl lysate were mixed with 1.2 µl Master Mix to achieve a protein concentration of ~0.5 µg/µl. Antibodies were diluted in Antibody Diluent II (SMARCA2 Sigma #HPA029981 RRID:AB_10602406 1:25–100, SMARCA4 Cell Signalling #49360 clone D1Q7F RRID:AB_2728743 1:15–120 or Abcam #ab110641 clone EPNCIR111A RRID:AB_10861578 1:60, GAPDH Abcam #ab9485 RRID:AB_307275 1:250). Wes plates were prepared and run according to manufacturer’s instructions. Proteins were quantified with accompanying Compass Software. SMARCA2/4 protein levels were normalised to GAPDH. […] Where applicable, curves were fitted using a 4-parametric logistic model.

[1] = HCC4006_SM2, four-parameter fit
[2] = HCC-364_SM2, four-parameter fit

Chain of SMARCA2 (P51531 whole entry): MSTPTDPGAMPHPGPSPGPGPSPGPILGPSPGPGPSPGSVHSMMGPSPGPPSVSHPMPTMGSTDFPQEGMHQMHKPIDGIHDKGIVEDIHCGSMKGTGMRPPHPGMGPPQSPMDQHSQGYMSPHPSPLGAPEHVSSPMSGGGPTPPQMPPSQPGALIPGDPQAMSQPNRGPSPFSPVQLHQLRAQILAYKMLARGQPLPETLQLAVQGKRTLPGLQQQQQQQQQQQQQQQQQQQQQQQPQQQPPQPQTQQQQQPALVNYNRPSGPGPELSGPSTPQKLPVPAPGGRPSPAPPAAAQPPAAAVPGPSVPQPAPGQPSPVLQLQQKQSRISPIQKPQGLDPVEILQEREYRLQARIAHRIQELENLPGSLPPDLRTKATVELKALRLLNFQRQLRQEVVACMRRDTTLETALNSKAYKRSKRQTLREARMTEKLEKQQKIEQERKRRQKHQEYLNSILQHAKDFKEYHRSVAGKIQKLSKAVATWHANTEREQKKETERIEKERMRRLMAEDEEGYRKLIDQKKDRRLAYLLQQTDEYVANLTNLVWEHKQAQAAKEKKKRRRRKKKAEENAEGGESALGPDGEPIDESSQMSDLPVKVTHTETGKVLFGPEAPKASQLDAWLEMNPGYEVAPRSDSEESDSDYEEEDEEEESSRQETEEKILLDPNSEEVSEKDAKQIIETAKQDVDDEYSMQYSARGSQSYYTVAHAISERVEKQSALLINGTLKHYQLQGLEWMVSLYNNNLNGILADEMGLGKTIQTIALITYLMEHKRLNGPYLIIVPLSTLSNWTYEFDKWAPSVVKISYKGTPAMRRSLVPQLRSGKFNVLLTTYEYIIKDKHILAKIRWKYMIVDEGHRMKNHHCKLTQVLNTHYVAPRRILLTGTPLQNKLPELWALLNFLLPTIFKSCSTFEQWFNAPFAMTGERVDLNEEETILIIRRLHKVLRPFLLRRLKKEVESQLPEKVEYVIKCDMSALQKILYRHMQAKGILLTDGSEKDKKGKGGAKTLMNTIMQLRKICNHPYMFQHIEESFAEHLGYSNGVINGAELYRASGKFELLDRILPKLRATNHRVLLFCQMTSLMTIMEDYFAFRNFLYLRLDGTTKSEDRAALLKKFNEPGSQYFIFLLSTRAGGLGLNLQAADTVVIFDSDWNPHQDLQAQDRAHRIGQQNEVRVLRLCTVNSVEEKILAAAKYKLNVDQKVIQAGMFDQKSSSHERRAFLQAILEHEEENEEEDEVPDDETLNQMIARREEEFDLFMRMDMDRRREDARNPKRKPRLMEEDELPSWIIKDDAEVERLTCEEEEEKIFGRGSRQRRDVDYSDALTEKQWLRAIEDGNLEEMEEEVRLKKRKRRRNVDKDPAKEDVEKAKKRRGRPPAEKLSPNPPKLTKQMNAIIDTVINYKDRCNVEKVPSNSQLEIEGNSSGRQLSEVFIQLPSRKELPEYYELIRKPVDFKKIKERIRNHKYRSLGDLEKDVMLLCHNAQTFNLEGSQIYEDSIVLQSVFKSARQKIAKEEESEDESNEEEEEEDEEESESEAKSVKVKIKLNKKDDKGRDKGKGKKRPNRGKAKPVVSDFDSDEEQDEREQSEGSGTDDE

Cc1ncsc1-c1ccc(C(CCC(C)CCN2CCC(c3ccc4c(c3)n(C3CCCC3)c3nc(=O)c5c(Br)cccc5n43)CC2)NC(=O)C2CC(O)CN2C(=O)C(NC(=O)C2(F)CC2)C(C)(C)C)cc1 (stereo not shown) [ACBI2]
Bottom (% protein remaining, four-parameter fit) (A549, 4h): 4.929% | HillSlope (protein remaining) (A549, 4h): -1.225 | LogEC50 (protein remaining) (A549, 4h): -8.097 log10(mol/l) | Top (% protein remaining, four-parameter fit) (A549, 4h): 100.9% | % protein remaining (A549, 4h, conc 1.00001e-10 mol/l): 84.5708% and 85.2048% | % protein remaining (A549, 4h, conc 1.52416e-10 mol/l): 108.644% | % protein remaining (A549, 4h, conc 3.1623e-10 mol/l): 89.402% and 93.1131% | % protein remaining (A549, 4h, conc 4.57247e-10 mol/l): 121.415% | % protein remaining (A549, 4h, conc 1.00001e-9 mol/l): 110.304% and 110.867% | % protein remaining (A549, 4h, conc 1.37174e-9 mol/l): 89.7364% | % protein remaining (A549, 4h, conc 3.1623e-9 mol/l): 63.5379% and 69.9208% | % protein remaining (A549, 4h, conc 4.11523e-9 mol/l): 69.7779% | % protein remaining (A549, 4h, conc 1.00001e-8 mol/l): 46.41% and 40.9559% | % protein remaining (A549, 4h, conc 1.23457e-8 mol/l): 53.3153% | % protein remaining (A549, 4h, conc 3.1623e-8 mol/l): 21.5929% and 21.3671% | % protein remaining (A549, 4h, conc 3.7037e-8 mol/l): 16.6414% | % protein remaining (A549, 4h, conc 1.00001e-7 mol/l): 9.055% and 9.573% | % protein remaining (A549, 4h, conc 1.11111e-7 mol/l): 6.719% | % protein remaining (A549, 4h, conc 3.1623e-7 mol/l): 3.884% and 5.2896% | % protein remaining (A549, 4h, conc 3.33333e-7 mol/l): 5.288% | % protein remaining (A549, 4h, conc 1e-6 mol/l): 9.764% | % protein remaining (A549, 4h, conc 1.00001e-6 mol/l): 2.893% and 6.667% | % protein remaining (A549, 4h, conc 3.1623e-6 mol/l): 2.881% and 4.488% | DC50 (A549, 4h, read-out: EC50 (protein remaining)): 8 nM | Bottom (% protein remaining, four-parameter fit) (A549, 8h): 4.658% | HillSlope (protein remaining) (A549, 8h): -1.748 | LogEC50 (protein remaining) (A549, 8h): -8.366 log10(mol/l) | Top (% protein remaining, four-parameter fit) (A549, 8h): 107% | % protein remaining (A549, 8h, conc 1.52416e-10 mol/l): 110.756% and 87.6939% | % protein remaining (A549, 8h, conc 4.57247e-10 mol/l): 98.1008% and 121.894% | % protein remaining (A549, 8h, conc 1.37174e-9 mol/l): 100.189% and 99.1847% | % protein remaining (A549, 8h, conc 3.7037e-8 mol/l): 13.1114% and 6.497% | % protein remaining (A549, 8h, conc 1.11111e-7 mol/l): 4.666% and 4.638% | % protein remaining (A549, 8h, conc 3.33333e-7 mol/l): 3.034% and 3.636% | % protein remaining (A549, 8h, conc 1e-6 mol/l): 2.595% and 3.383% | % protein remaining (A549, 8h, conc 3e-6 mol/l): 3.585% and 2.581% | DC50 (A549, 8h, read-out: EC50 (protein remaining)): 4.31 nM | Bottom (% protein remaining, four-parameter fit) (A549, 18h): 5.224% | HillSlope (protein remaining) (A549, 18h): -3.553 | LogEC50 (protein remaining) (A549, 18h): -8.518 log10(mol/l) | Top (% protein remaining, four-parameter fit) (A549, 18h): 104.8% | % protein remaining (A549, 18h, conc 1.52416e-10 mol/l): 87.6939% | % protein remaining (A549, 18h, conc 4.57247e-10 mol/l): 121.894% | % protein remaining (A549, 18h, conc 1.37174e-9 mol/l): 99.1847% | % protein remaining (A549, 18h, conc 4.11523e-9 mol/l): 30.1189% | % protein remaining (A549, 18h, conc 1.23457e-8 mol/l): 11.5462% | % protein remaining (A549, 18h, conc 3.7037e-8 mol/l): 6.497% | % protein remaining (A549, 18h, conc 1.11111e-7 mol/l): 4.638% | % protein remaining (A549, 18h, conc 3.33333e-7 mol/l): 3.636% | % protein remaining (A549, 18h, conc 1e-6 mol/l): 3.383% | % protein remaining (A549, 18h, conc 3e-6 mol/l): 2.581% | DC50 (A549, 18h, read-out: EC50 (protein remaining)): 3.03 nM | SMARCA2 degradation in sensitive cell lines (A549 and NCI-H1568): rapid and complete degradation of SMARCA2 | Bottom (best-fit value, % protein remaining) [1]: 15.27% | HillSlope [1]: -1.75 | LogEC50 (HCC4006_SM2): -7.779 | DC50 (HCC4006_SM2, protein degradation, four-parameter fit, read-out: EC50 (the source's name)): 16.6 nM | Bottom (best-fit value, % protein remaining) [2]: 10.4% | HillSlope [2]: -2.48 | LogEC50 (HCC-364_SM2): -8.138 | DC50 (HCC-364_SM2, protein degradation, four-parameter fit, read-out: EC50 (the source's name)): 7.28 nM | Bottom (% protein remaining, four-parameter fit) (HCT116, SM2): 21.77% | HillSlope (protein remaining) (HCT116, SM2): -1.136 | Top (% protein remaining, four-parameter fit) (HCT116, SM2): 121.9% | Bottom (best-fit value, % protein remaining) (HCT-15_SM2, four-parameter fit): -16.7% | HillSlope (HCT-15_SM2, four-parameter fit): -0.6998 | LogEC50 (HCT-15_SM2): -6.787 | DC50 (HCT-15_SM2, protein degradation, four-parameter fit, read-out: EC50 (the source's name)): 163 nM | Bottom (best-fit value, % protein remaining) (LU99_SM2, four-parameter fit): 4.814% | HillSlope (LU99_SM2, four-parameter fit): -1.159 | LogEC50 (LU99_SM2): -8.209 | DC50 (LU99_SM2, protein degradation, four-parameter fit, read-out: EC50 (the source's name)): 6.18 nM | Dmax (NCI-H1568 (4 h), mean ± SD): 86 ± 6%
